Experimental findings from ChEMBL document CHEMBL4402533 (Eur J Med Chem, 2019) are described below.

By logP is commonly meant the decadic logarithm of the partition coefficient of the neutral form, usually between octanol and water. A low value points to a more hydrophilic compound. In general, IC50 refers to the concentration at which inhibition is half-maximal. Read a high IC50 as lower potency.

One series has as its system Mus musculus. In words: Antiinflammatory activity in C57BL/6 mouse assessed as reduction in LPS-induced inflammatory mortality by measuring mouse survival rate at 10 mg/kg, iv preincubated for 15 mins followed by LPS stimulation and measured at 24 hrs interval for 7 days relative to control. It counts as functional.
For series [1], the species on record is Homo sapiens. The series can be described thus: Selectivity ratio of Ki for human carbonic anhydrase 12 to Ki for human carbonic anhydrase 9.
Series [2] is filed under the species Homo sapiens. In words: Selectivity ratio of Ki for human carbonic anhydrase 9 to Ki for human carbonic anhydrase 2.
The nature of series [3]: Partition coefficient, log P of the compound. The note with it: octanol/water. The class given is physicochemical.
Series [4] can be described thus: Chemical stability of the compound in presence of 10% FBS or human blood. It counts as physicochemical.
Series [5] is described as follows: Chemical stability of the compound in pH 7.4 phosphate buffer assessed as drug decomposition in serum-free medium measured within 30 mins. It counts as physicochemical.
Series [6] can be described thus: Critical aggregation concentration of compound by dynamic light scattering. It counts as physicochemical.
Another series deals with HeLa. In words: Antiproliferative activity against human HeLa cells. The class given is functional, cell-based.
The target of a further series is T1, Tyrosinase (Agaricus bisporus, UniProt O42713).
T1 sequence (O42713 whole entry): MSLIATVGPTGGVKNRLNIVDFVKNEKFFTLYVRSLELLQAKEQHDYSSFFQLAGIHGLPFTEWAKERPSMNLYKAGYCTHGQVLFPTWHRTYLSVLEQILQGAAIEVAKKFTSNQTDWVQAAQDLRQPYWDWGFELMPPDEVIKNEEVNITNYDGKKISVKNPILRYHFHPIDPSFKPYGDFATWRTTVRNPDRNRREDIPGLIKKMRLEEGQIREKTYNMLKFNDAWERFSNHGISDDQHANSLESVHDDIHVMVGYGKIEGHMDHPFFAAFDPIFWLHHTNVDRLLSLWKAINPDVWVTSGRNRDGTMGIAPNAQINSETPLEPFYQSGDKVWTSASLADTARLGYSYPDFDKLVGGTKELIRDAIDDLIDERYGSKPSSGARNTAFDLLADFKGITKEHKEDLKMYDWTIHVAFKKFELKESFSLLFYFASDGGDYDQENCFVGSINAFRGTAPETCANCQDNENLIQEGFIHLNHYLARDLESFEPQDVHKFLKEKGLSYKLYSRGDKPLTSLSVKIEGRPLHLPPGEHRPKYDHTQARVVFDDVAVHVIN
The series can be described thus: Inhibition of mushroom tyrosinase preincubated for 10 mins followed by L-DOPA addition and measured for 1 mins by spectrophotometric assay.

Each structure is given as a SMILES string. Some results are limits rather than exact numbers.

Turning to `O=C(/C=C/c1ccccc1O)/C=C/c1ccccc1Br`, the Activity in the series on Mus musculus is on record as 60%.

Regarding `COc1ccc(/C=C/C(=O)/C=C/c2ccc(S(N)(=O)=O)cc2)cc1OC`, the Ratio Ki in the series filed under Homo sapiens [1] was 70; in the series listed under Homo sapiens [2], 3. The like results for `COc1ccc(OC)c(/C=C/C(=O)/C=C/c2ccc(S(N)(=O)=O)cc2)c1` were, in that order, 9 and 9.

`COc1cc(/C=C/C(=O)CC(=O)/C=C/c2ccc(O)c(OC)c2)ccc1O` [CURCUMIN] showed a lipophilicity (logP) in series [3] of 2.3 to 2.6. Also, the Stability in series [4] is less than 50%. In [5], the Drug degradation was less than 90%. This compound registered a CAC in [6] of 17 µM. As to `COc1ccc(/C=C/C(=O)/C=C/c2ccc(OCCN3CCCCC3)c(OC)c2)cc1OC`, in the series with HeLa, the IC50 worked out at 700 nM.

Consider `O=C1/C(=C/c2ccc(O)cc2)CC/C1=C\c1ccc(O)cc1O`, for which the half-inhibitory concentration (IC50) on Tyrosinase amounted to 1740 nM.
